Calls of active or inactive are those of the source.
How the values were obtained:
[1] = biological target: T1, Corticotropin-releasing factor receptor 2/Corticotropin-releasing factor-binding protein (Homo sapiens, UniProt P24387+Q13324); experiment: Dose Response confirmation of uHTS hits for small molecule antagonists of the CRF-binding protein and CRF-R2 receptor complex.; type: functional; conditions: read-out: IC50_Mean
T1 sequence (Q13324 whole entry): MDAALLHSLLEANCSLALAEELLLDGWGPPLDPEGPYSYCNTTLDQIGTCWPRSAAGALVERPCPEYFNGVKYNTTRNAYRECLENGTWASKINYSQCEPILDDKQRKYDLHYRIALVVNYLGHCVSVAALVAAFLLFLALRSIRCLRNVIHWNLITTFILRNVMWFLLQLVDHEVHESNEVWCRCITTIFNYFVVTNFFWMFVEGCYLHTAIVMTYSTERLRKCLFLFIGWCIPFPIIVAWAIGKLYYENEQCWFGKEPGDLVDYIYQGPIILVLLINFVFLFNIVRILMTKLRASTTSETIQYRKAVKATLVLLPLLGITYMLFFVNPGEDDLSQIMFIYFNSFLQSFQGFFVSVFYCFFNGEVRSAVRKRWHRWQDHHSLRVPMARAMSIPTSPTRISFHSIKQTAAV
T1 sequence (P24387 whole entry): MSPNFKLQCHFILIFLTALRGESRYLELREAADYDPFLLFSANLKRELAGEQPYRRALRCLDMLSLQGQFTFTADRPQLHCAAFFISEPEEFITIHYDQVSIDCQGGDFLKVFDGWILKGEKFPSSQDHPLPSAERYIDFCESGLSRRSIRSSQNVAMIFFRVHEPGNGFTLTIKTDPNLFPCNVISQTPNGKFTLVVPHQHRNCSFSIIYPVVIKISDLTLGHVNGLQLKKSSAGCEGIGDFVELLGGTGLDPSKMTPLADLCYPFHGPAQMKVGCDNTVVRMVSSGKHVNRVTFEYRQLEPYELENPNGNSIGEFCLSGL

[2] = biological target: T2, Alkaline phosphatase, tissue-nonspecific isozyme (Homo sapiens, UniProt P05186); experiment: human TNAP enzyme inhibitors, SAR follow-up, biochemical, luminescent, dose response (AID 1056)
T2 sequence (P05186 whole entry): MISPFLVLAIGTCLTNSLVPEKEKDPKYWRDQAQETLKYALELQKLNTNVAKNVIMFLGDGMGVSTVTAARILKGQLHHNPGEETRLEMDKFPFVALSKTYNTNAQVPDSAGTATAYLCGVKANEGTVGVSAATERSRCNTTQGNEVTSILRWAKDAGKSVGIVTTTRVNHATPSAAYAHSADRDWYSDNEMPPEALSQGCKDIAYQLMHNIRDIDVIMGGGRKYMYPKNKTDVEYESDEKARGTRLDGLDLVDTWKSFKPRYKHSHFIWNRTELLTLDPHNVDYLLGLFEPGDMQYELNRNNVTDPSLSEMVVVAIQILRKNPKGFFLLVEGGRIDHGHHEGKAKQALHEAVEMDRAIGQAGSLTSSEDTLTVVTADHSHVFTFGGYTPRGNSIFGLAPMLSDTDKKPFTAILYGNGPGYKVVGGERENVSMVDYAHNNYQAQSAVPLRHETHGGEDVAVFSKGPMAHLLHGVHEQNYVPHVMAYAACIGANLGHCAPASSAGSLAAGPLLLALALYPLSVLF

[3] = biological target: Glyceraldehyde-3-phosphate dehydrogenase (Homo sapiens, UniProt P04406)
[4] = biological target: T1, Corticotropin-releasing factor receptor 2/Corticotropin-releasing factor-binding protein; experiment: activators of CRF receptor 2 with binding protein – uHTS hits, confirmation (AID 602473); type: functional; conditions: read-out: EC50_Mean
[5] = inhibitors of clade B AD8 Env fusion, dose response, cell-based, cherry-pick (AID 652062); type: functional;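 also: luciferase signal from cell-cell fusion driven by HIV-1 clade B AD8 Env; potency is for inhibitors of fusion seen as a drop in luminescence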
[6] = off-target signal loss in HeLa-CEM21 co-culture – HeLa F-luc CTL cells, cherry-picked, counter-screen for HIV-1 Env fusion inhibitor project, dose response (AID 652040); type: functional, cell-based;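 also: potency for signal decrease marking cytotoxic or nonspecific inhibition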
[7] = HepG2 cell cytotoxicity, dose response, cytotoxicity control for Shn3 inhibitor project, CellTiter-Glo, cherry-picked (AID 624134); type: functional, cell-based
[8] = Shn3 3'UTR reporter inhibitors, dose response, cell-based, Clone20 osteoblasts, firefly luciferase, cherry-picked (AID 624132); type: functional;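 also: firefly luciferase luminescence from reporter carrying the Shn3 3'UTR in osteoblasts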
cells [9] = type: functional, cell-based
Protein RecA = biological target: T3, Protein RecA (Mycobacterium tuberculosis, UniProt P9WHJ3); experiment: Fluorescence Cell-Free Homogeneous Dose Retest to Identify Inhibitors of RecA-Intein Splicing Activity. [Related pubchem assays (depositor defined):AID2097, AID2223, AID489010, AID492950]; type: functional
T3 sequence (P9WHJ3 whole entry): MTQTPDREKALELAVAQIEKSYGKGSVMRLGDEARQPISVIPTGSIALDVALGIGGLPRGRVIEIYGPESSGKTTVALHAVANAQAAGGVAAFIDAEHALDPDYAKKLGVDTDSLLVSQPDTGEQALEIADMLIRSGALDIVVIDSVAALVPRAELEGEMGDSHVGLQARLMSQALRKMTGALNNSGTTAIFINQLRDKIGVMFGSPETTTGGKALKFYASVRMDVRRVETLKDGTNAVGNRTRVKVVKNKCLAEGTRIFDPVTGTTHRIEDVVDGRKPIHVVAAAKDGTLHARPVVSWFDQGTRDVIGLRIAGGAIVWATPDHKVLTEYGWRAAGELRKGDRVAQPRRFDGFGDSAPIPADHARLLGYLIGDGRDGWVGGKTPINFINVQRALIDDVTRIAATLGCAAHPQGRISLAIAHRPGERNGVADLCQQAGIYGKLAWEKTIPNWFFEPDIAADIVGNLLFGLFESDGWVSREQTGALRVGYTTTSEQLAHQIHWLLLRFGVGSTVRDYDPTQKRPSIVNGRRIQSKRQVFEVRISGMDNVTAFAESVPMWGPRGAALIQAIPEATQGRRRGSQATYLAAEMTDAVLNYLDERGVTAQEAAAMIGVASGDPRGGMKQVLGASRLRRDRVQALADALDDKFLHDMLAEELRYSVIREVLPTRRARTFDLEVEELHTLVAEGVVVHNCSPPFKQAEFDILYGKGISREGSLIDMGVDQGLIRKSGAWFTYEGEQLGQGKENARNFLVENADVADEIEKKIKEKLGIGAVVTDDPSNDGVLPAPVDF

cells [10] = type: functional, cell-based; remark: listed apart in the source
[11] = biological target: T4, Replicative DNA helicase DnaB (Mycobacterium tuberculosis, UniProt P9WMR3); experiment: DnaB intein splicing inhibitors, dose response, biochemical, cell-free fluorescence (AID 449749); type: functional
T4 sequence (P9WMR3 whole entry): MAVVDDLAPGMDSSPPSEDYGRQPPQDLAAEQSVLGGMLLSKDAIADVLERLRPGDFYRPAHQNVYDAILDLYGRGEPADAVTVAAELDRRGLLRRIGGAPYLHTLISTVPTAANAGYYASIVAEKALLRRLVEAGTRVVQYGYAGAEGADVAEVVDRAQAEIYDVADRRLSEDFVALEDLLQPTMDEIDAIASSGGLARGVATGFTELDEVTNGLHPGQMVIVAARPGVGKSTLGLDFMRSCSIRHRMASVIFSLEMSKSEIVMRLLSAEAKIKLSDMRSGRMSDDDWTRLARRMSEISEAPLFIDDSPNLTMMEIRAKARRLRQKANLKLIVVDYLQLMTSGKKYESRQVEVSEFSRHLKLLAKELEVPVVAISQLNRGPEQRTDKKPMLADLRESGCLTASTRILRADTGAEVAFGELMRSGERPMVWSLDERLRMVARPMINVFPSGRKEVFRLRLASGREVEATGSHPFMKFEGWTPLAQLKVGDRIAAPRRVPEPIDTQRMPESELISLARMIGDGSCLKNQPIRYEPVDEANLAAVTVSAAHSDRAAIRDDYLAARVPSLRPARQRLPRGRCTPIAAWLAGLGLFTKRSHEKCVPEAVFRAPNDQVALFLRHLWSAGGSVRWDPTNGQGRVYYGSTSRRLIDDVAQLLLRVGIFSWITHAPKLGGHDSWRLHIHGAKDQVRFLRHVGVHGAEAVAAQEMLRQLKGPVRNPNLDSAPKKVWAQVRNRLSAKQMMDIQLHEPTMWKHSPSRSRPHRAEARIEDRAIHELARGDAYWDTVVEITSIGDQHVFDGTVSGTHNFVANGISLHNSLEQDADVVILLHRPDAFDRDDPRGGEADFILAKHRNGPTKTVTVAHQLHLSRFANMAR

[12] = control 3'UTR Renilla luciferase suppression, dose response, counter-screen for Shn3 inhibitor project, cell-based, Clone20-Shn3RL, cherry-picked (AID 624133); type: functional
[13] = intracellular Trypanosoma cruzi inhibitors in host cells – cell-based, plate reader, cherry-pick samples, set 3, dose response (AID 651818); type: functional;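 also: compounds incubated with infected cells for about four days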
Paired box protein Pax-8 = Paired box protein Pax-8 (Homo sapiens, UniProt Q06710); experiment: inhibitors of PAX8-driven TPO luciferase reporter, dose response, RMG-I cells, cherry-pick (AID 687027); type: functional, cell-based;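 also: luciferase reporter driven by Pax8 target thyroperoxidase promoter measured by SteadyGlo luminescence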
Sequence of Paired box protein Pax-8 (Q06710 whole entry): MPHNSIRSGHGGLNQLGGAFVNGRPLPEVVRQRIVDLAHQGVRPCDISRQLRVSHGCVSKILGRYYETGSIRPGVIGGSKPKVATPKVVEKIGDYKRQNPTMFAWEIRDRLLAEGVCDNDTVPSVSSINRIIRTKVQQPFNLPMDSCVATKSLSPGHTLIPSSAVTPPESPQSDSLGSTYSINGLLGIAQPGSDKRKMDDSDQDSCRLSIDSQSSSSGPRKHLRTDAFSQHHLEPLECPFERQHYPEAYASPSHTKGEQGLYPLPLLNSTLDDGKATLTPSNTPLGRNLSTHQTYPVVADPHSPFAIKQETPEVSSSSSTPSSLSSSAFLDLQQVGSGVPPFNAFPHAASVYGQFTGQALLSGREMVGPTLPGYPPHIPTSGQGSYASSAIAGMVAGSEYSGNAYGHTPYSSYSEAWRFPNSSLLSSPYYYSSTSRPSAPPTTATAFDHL

Sequence of Glyceraldehyde-3-phosphate dehydrogenase (P04406 whole entry): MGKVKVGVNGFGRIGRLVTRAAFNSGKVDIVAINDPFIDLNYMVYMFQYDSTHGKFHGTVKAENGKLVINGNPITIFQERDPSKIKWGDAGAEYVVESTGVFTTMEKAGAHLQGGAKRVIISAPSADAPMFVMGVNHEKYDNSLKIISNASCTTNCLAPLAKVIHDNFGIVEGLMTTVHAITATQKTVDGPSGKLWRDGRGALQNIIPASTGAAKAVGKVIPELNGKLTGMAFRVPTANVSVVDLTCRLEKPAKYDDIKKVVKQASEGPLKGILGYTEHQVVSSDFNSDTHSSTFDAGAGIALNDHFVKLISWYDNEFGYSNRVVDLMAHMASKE

Row | Structure (SMILES) | IC50 [2] | IC50 [3] | AC50 [13] | other results
1 | CCCSc1nnc(NC(C)=O)[nH]1 | 0.449 µM (active) | > 10 µM (inconclusive) |  | IC50 [1]: > 47.1 µM (inactive); EC50 [4]: > 53 µM (inactive)
2 | CCCn1c(=S)[nH]c2cc(C(=O)N3CCCC(C(=O)OCC)C3)ccc2c1=O (centres undefined) |  |  |  | AC50 [5]: 23.2 µM (active); AC50 [6]: > 70 µM (inactive)
3 | c1cncc(Cn2ccnc2)c1 | > 100 µM (inactive) | > 100 µM (not active) |  | 
4 | O=C1C(Cl)=C(N2CCN(c3ncccn3)CC2)C(=O)N1c1cccc(C(F)(F)F)c1 |  | > 50 µM (inconclusive) |  | 
5 | COc1ccc(OC)c(S(=O)(=O)Nc2ccc[nH]c2=O)c1 | 6.32 µM (active) | > 100 µM (not active) |  | 
6 | COc1ccccc1-c1cc(C(F)(F)F)nc(S(=O)(=O)CCCC(=O)N2CCCCC2C)n1 (centres undefined) |  |  |  | AC50 [7]: 25.7 µM (active); AC50 [8]: 2.65 µM (active); EC50 (cells [9]): > 350 µM (not active); EC50 (Protein RecA): 3.11 µM (active); EC50 (cells [10]): > 350 µM (not active); AC50 [11]: 1.97 µM (active); AC50 [12]: 8.84 µM (active)
7 | CC(=O)Nc1nnc(SCCc2ccccc2)[nH]1 | > 100 µM (inactive) | > 100 µM (not active) |  | 
8 | C[C@@H]1CCCCO[C@H](CN(C)Cc2ccc(C(F)(F)F)cc2)[C@@H](C)CN([C@H](C)CO)C(=O)c2cc(NC(=O)Nc3ccccc3)ccc2O1 |  |  | 4.7 µM (active) | 
9 | C[C@H]1CN([C@@H](C)CO)C(=O)c2cc(NC(=O)Nc3cccc4ccccc34)ccc2O[C@H]1CN(C)Cc1ccc(Cl)c(Cl)c1 |  |  | 5.7 µM (active) | 
10 | C[C@@H]1CCCCO[C@@H](CN(C)Cc2ccc(C(F)(F)F)cc2)[C@@H](C)CN([C@H](C)CO)C(=O)c2cc(NC(=O)Nc3ccc(F)cc3)ccc2O1 |  |  | 6.87 µM (active) | 
11 | C[C@@H]1CN([C@H](C)CO)C(=O)Cc2cc(NC(=O)Nc3ccc(F)cc3)ccc2O[C@@H]1CN(C)Cc1ccc(C(=O)Nc2ccccc2N)cc1 |  |  | 2.04 µM (active) | 
12 | COc1ccc(S(=O)(=O)Nc2ccc3c(c2)C(=O)N([C@@H](C)CO)C[C@H](C)[C@H](CN(C)Cc2ccc(Oc4ccccc4)cc2)O3)cc1 |  |  | 1.94 µM (active) | 
13 | C[C@@H]1CCCCO[C@@H](CN(C)C(=O)NC2CCCCC2)[C@@H](C)CN([C@H](C)CO)C(=O)c2cc(NC(=O)Nc3ccc(C(F)(F)F)cc3)ccc2O1 |  |  | 4.12 µM (active) | 
14 | C[C@@H]1CN([C@@H](C)CO)C(=O)c2cccc(NC(=O)c3nc4ccccc4s3)c2O[C@H]1CN(C)Cc1ccc(-c2ccccc2)cc1 |  |  | 3.59 µM (active) | 
15 | Cc1cccc(S(=O)(=O)N2CC[C@@H]3[C@H](CO)Nc4ccc(C5=CCCCC5)cc4[C@@H]32)c1 |  |  |  | AC50 (Paired box protein Pax-8): 10.9 µM (active)
16 | O=C(C[C@@H]1CC[C@@H]2[C@H](COC[C@H](O)CN2S(=O)(=O)c2cccc(Cl)c2)O1)Nc1ccc(-c2ccccc2)cc1 |  |  |  | AC50 (Paired box protein Pax-8): 9.87 µM (active)
17 | C[C@@H]1CCCCO[C@H](CN(C)Cc2ccncc2)[C@H](C)CN([C@@H](C)CO)C(=O)c2cc(NC(=O)Nc3ccc(C(F)(F)F)cc3)ccc2O1 |  |  |  | AC50 (Paired box protein Pax-8): 13.6 µM (active)
18 | c1cncc(-c2nccs2)c1 | > 100 µM (inactive) | > 100 µM (not active) |  | 
19 | O=C(c1[nH]nc2c1COc1ccccc1-2)N1CCCC1 | 0.289 µM (active) | > 100 µM (not active) |  | 

— ChEMBL document CHEMBL1201862, “PubChem BioAssay data set” (2004)
